Laboratory results: patent publication US20250066358A1, “Inhibitors of Menin-MLL Interaction” (Bala Therapeutics, Inc., priority 2021, published 2025)

Key:
[1] = biological target: T1, recombinant MEN1 protein and fluorescein-labeled MLL4-43 peptide (Homo sapiens, UniProt O00255); experiment: Primary fluorescence polarization assay of MEN1 / MLL4-43 interaction inhibition; assay type: binding; conditions: MEN1 10 nM, MLL4-43 0.5 nM, 1 hour at room temperature
T1 construct: purchased Creativebiomart MEN1-35H
T1 sequence (O00255 1-610): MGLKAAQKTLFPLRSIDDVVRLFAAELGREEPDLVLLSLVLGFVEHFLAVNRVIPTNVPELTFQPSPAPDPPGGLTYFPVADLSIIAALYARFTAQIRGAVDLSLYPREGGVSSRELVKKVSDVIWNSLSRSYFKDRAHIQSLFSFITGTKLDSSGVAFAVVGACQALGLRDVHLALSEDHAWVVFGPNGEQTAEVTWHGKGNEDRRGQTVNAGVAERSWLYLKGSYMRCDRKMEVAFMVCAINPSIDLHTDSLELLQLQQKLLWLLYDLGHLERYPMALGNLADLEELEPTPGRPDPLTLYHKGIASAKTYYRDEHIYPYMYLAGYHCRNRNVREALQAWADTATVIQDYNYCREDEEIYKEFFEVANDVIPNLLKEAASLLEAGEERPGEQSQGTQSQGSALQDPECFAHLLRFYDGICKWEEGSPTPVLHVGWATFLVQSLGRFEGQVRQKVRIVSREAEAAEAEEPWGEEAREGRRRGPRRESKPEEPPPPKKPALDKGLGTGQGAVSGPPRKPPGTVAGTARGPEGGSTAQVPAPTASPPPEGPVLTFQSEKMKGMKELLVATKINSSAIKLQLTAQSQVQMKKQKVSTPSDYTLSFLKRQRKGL
Experimental: Compound activity was determined using recombinant MEN1 protein (Creativebiomart, Cat #MEN1-35H) and a custom fluorescein-labeled MLL4-43 peptide (Eton Bioscience Inc.). Interaction between MEN1 and MLL4-43 in the presence of compounds was determined by fluorescence polarization assay using a Microplate Reader ClarioStar Plus. The reaction was carried out in assay buffer (50 mM TRIS-HCl PH 7.4-7.6, 50 mM NaCl, 1 mM DTT, 0.1 mg/ml BSA). The compounds were dispensed on a 384 well Diamond Well Plate (Axigen, Cat #P-384-120 SQ-C—S) using the Biomek FX liquid handling system at 100× solutions of compounds in DMSO. 2× MEN1 mix (final concentration of MEN1 10 nM) was prepared in Assay buffer and 10 μl of mixture per well was added into 384w white Reaction plate with NBS(Corning, Cat #4513). 10 μl of Assay buffer w/o MENI was used for negative control. Plates were centrifuged for 1 min at 100 g. Next step the Compounds were added to Reaction plate using Biomek station via following steps: 3 μl of 100× compounds (in DMSO) were mixed thoroughly with 27 μl Assay Buffer, then 2 μl of this mixture was added to Reaction plate with 10 μl of MENI mix. Plates were centrifuged for 1 min at 100 g and incubated for 20 min at room temperature. Next 8 μL of MLL4-43 peptide per well was added to final concentration of MLL 0.5 nM. Plates were incubated for 1 hour at room temperature. Then fluorescence polarization was measured using Microplate Reader.

MV4-11 = MV4-11 Cellular Growth Inhibition Assay (CellTiter-Glo); assay type: cell-based; conditions: Homo sapiens, 168 h, MV4-11 cells, 7 days of incubation
Experimental: (§1) HEK293 (Institute of Cytology Russian Academy of Science), MV4-11 (ATCC, CRL-9591), MOLM-13 (AcceGen, ABC-TC517S) were seeded at a density of 500 cells per well (HEK293) and 2000 cells per well (MV4-11, MOLM-13) in a 384-well clear bottom plate (Greiner Cat #781090) in 45 μl total volume of DMEM (PanEco, Cat #C420, Russia) or RPMI (PanEco, Cat #C330, Russia) with 10% FBS(HyClone Cat #SV30160.03). HEK293 were allowed to adhere overnight at 37° C., 5% CO2. 500× compounds solutions in DMSO (Sigma Cat #D2650) were prepared into Cmpnds plate (Diamond Well Plate, Axigen, Cat #P-384-120 SQ-C—S) and DMSO only control was included. 1 μl of 500× compounds (Cmpnds plate) was added to 49 μl of culture medium into Dilution plate (Diamond Well Plate, Axigen, Cat #P-384-120 SQ-C—S), mixed and then 5 μl of 10× compounds solutions were transferred to cells followed by centrifugation at 100 g for 1 min. Final DMSO concentration was 0.2%. After 3 days of incubation, 10 μl of 1× compounds were added to cells. After 7 days of incubation, 12 μl of CellTiter-Glo (Promega, CAT #G7572) were added to the cells, plate was centrifuged at 100 g for 1 min and luminescence signal was measured using Microplate Reader (CLARIOStar).

MOLM-13 = MOLM-13 Cellular Growth Inhibition Assay (CellTiter-Glo); assay type: cell-based; conditions: Homo sapiens, 168 h, MOLM-13 cells, 7 days of incubation
Experimental: as §1

[2] = HEK293 Cellular Growth Inhibition Assay (CellTiter-Glo); assay type: cell-based; conditions: human, HEK293 cells, 7 days of incubation
Experimental: as §1

Compound | EC50 [1] | CC50 (MV4-11) | CC50 (MOLM-13) | CC50 at 7 days [2]
CCS(=O)(=O)N[C@H]1CC[C@H](CN2CCC3(CC2)CN(c2ncnc4ccc(CC(F)(F)F)cc24)C3)CC1 [Compound 5, N-((1R,4R)-4-((2-(6-(2,2,2-trifluoroethyl)quinazolin-4-yl)-2,7-diazaspiro[3.5]nonan-7-yl)methyl)cyclohexyl)ethanesulfonamide] | ≤ 75 nM | ≤ 1 µM | 1 to 5 µM | 5 to 15 µM
CCS(=O)(=O)Nc1ccc(CN2CCC3(CC2)CN(c2ncnc4ccc(CC(F)(F)F)cc24)C3)cc1 [Compound 7, N-(4-((2-(6-(2,2,2-trifluoroethyl)quinazolin-4-yl)-2,7-diazaspiro[3.5]nonan-7-yl)methyl)phenyl)ethanesulfonamide] | ≤ 75 nM | 1 to 2.5 µM | 1 to 5 µM | 5 to 15 µM
CCS(=O)(=O)Nc1ccc(CN2CCC3(CC2)CN(c2ncnc4cc(CC(F)(F)F)ccc24)C3)cc1 [Compound 8, N-(4-((2-(7-(2,2,2-trifluoroethyl)quinazolin-4-yl)-2,7-diazaspiro[3.5]nonan-7-yl)methyl)phenyl)ethanesulfonamide] | > 5000 nM | 5 to 10 µM | 10 to 20 µM | 15 to 30 µM
CCS(=O)(=O)Nc1ccc(CN2CCC(Nc3ncnc4ccc(CC(F)(F)F)cc34)CC2)cc1 [Compound 36, N-(4-((4-((6-(2,2,2-trifluoroethyl)quinazolin-4-yl)amino)piperidin-1-yl)methyl)phenyl)ethanesulfonamide] | 1000 to 5000 nM | 5 to 10 µM | 5 to 10 µM | 15 to 30 µM
CCS(=O)(=O)Nc1ccc(CN2CC3(CCN(c4ncnc5ccc(CC(F)(F)F)cc45)CC3)C2)cc1 [Compound 43, N-(4-((7-(6-(2,2,2-trifluoroethyl)quinazolin-4-yl)-2,7-diazaspiro[3.5]nonan-2-yl)methyl)phenyl)ethanesulfonamide] | 1000 to 5000 nM | 5 to 10 µM | 5 to 10 µM | 15 to 30 µM
CCS(=O)(=O)Nc1cccc(CN2CC3(CCN(c4ncnc5ccc(CC(F)(F)F)cc45)CC3)C2)c1 [Compound 44, N-(3-((7-(6-(2,2,2-trifluoroethyl)quinazolin-4-yl)-2,7-diazaspiro[3.5]nonan-2-yl)methyl)phenyl)ethanesulfonamide] | 500 to 1000 nM | 1 to 2.5 µM | 5 to 10 µM | 5 to 15 µM
CCNS(=O)(=O)c1ccc(CN2CC3(CCN(c4ncnc5ccc(CC(F)(F)F)cc45)CC3)C2)cc1 [Compound 45, N-ethyl-4-((7-(6-(2,2,2-trifluoroethyl)quinazolin-4-yl)-2,7-diazaspiro[3.5]nonan-2-yl)methyl)benzenesulfonamide] | 1000 to 5000 nM | 5 to 10 µM | 5 to 10 µM | 15 to 30 µM
CCS(=O)(=O)N[C@H]1CC[C@H](CN2CCC3(CC2)CN(c2ncnc4ccc(CCc5ccncc5)cc24)C3)CC1 [Compound 48, N-((1R,4R)-4-((2-(6-(2-(pyridin-4-yl)ethyl)quinazolin-4-yl)-2,7-diazaspiro[3.5]nonan-7-yl)methyl)cyclohexyl)ethanesulfonamide] | 500 to 1000 nM | > 10 µM | > 20 µM | 30 to 50 µM
CCS(=O)(=O)Nc1ccc(CN2CCC3(CC2)CN(c2ncnc4ccc(CCc5ccncc5)cc24)C3)cc1 [Compound 49, N-(4-((2-(6-(2-(pyridin-4-yl)ethyl)quinazolin-4-yl)-2,7-diazaspiro[3.5]nonan-7-yl)methyl)phenyl)ethanesulfonamide] | 1000 to 5000 nM | 5 to 10 µM | 10 to 20 µM | 30 to 50 µM
CCS(=O)(=O)N[C@H]1CC[C@H](CN2CCC3(CC2)CN(c2ncnc4ccc(CCc5ccccc5)cc24)C3)CC1 [Compound 51, N-((1R,4R)-4-((2-(6-phenethylquinazolin-4-yl)-2,7-diazaspiro[3.5]nonan-7-yl)methyl)cyclohexyl)ethanesulfonamide] | 500 to 1000 nM | 2.5 to 5 µM | 5 to 10 µM | 5 to 15 µM
CCS(=O)(=O)Nc1ccc(CN2CCC3(CC2)CN(c2ncnc4ccc(CCc5ccccc5)cc24)C3)cc1 [Compound 52, N-(4-((2-(6-phenethylquinazolin-4-yl)-2,7-diazaspiro[3.5]nonan-7-yl)methyl)phenyl)ethanesulfonamide] | 500 to 1000 nM | 1 to 2.5 µM | 1 to 5 µM | 5 to 15 µM
CCS(=O)(=O)N[C@H]1CC[C@H](CN2CCC3(CC2)CN(c2ncnc4ccc(C#Cc5ccccc5)cc24)C3)CC1 [Compound 53, N-((1R,4R)-4-((2-(6-(phenylethynyl)quinazolin-4-yl)-2,7-diazaspiro[3.5]nonan-7-yl)methyl)cyclohexyl)ethanesulfonamide] | > 5000 nM | 2.5 to 5 µM | 5 to 10 µM | ≤ 5 µM
CCS(=O)(=O)N[C@H]1CC[C@H](CN2CCC3(CC2)CN(c2ncnc4ccc(CCc5cccnc5)cc24)C3)CC1 [Compound 56, N-((1R,4R)-4-((2-(6-(2-(pyridin-3-yl)ethyl)quinazolin-4-yl)-2,7-diazaspiro[3.5]nonan-7-yl)methyl)cyclohexyl)ethanesulfonamide] | 500 to 1000 nM | 5 to 10 µM | 5 to 10 µM | 15 to 30 µM
CCS(=O)(=O)N[C@H]1CC[C@H](CN2CCC3(CC2)CN(c2ncnc4ccc(CCc5cccc(F)c5)cc24)C3)CC1 [Compound 61, N-((1R,4R)-4-((2-(6-(3-fluorophenethyl)quinazolin-4-yl)-2,7-diazaspiro[3.5]nonan-7-yl)methyl)cyclohexyl)ethanesulfonamide] | 75 to 500 nM | 1 to 2.5 µM | 1 to 5 µM | 5 to 15 µM
CCS(=O)(=O)N[C@H]1CC[C@H](CN2CCC3(CC2)CN(c2ncnc4ncc(CC(F)(F)F)cc24)C3)CC1 [Compound 65, N-(1R,4R)-[4-[[2-[6-(2,2,2-trifluoroethyl)pyrido[2,3-d]pyrimidin-4-yl]-2,7-diazaspiro[3.5]nonan-7-yl]methyl]cyclohexyl]ethanesulfonamide] | 75 to 500 nM | 1 to 2.5 µM | 1 to 5 µM | > 50 µM
CCS(=O)(=O)N[C@H]1CC[C@H](Cn2cc(CNc3ncnc4ccc(CC(F)(F)F)cc34)nn2)CC1 [Compound 69, N-((1R,4R)-4-((4-(((6-(2,2,2-trifluoroethyl)quinazolin-4-yl)amino)methyl)-1H-1,2,3-triazol-1-yl)methyl)cyclohexyl)ethanesulfonamide] | > 5000 nM | > 10 µM | 5 to 10 µM | 30 to 50 µM
